Experimental data published in patent publication US9403835B2, “Tetraaza-cyclopenta[a]indenyl and their use as positive allosteric modulators” (Merck Patent GmbH, priority 2011, dated 2016).

Tests used:
muscarinic M1 receptor = molecular target: T1, muscarinic M1 receptor (Homo sapiens, UniProt P11229); test: M1 PAM Assay (IP-One HTRF, IP1 in M1-CHO cells with EC20 of acetylcholine); assay type: cell-based; conditions: 1 hour at room temperature, IP1 readout
T1 construct: expressed in transfected cells; host or cells: CHO (M1-CHO cells)
T1 sequence (P11229 1-460): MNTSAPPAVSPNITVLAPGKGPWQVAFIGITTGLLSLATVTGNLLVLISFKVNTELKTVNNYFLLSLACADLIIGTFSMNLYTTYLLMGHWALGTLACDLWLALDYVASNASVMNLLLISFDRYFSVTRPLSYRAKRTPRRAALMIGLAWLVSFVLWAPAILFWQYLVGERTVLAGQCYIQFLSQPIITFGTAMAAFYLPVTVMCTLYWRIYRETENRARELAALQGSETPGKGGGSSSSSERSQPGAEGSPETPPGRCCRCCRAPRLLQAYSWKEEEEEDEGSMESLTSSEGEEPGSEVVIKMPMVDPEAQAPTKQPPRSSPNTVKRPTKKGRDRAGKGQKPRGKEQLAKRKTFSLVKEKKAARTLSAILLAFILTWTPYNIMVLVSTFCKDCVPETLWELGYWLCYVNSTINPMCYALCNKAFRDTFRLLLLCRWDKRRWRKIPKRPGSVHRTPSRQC
Method: M1-CHO cells are plated in culture medium (HAM's F12, P/S, 10% FCS) on the day before the experiment with 10 000 cells/well in a 384 well plate (3750 Corning White 384 w plate with lid). On the day of experiment, cells are washed with PBS and IPone buffer is added (glucose 5.5 mM, NaCl 146 mM, MgCl2 0.5 mM, HEPES 10 mM, LiCl 50 mM, CaCl2 1 mM, KCl 4.2 mM). Then diluted compounds (1% DMSO final concentration) are added together with EC20 of acetylcholine and incubated with the cells for 1 hour at room temperature. The intracellular concentration of IP1 is then measured using the IP-One HTRF assay from Cisbio.

melting point: 179 to 181 °C | EC50 (muscarinic M1 receptor): 200 to 1000 nM
Structure (SMILES): Cc1nc2c3c(nn2c(C)c1Cl)CN(C(=O)c1ccccc1OC(F)(F)F)C3 [Example 14, (6-chloro-5,7-dimethyl-1H,3H-2,4,7a,8-tetraaza-cyclopenta[a]inden-2-yl)-(2-trifluoromethoxy-phenyl)-methanone]
